Data set [1] has as its system PC12 cells. Briefly: Inhibition of H2O2-induced oxidative damage in PC12 cells. It is filed as cell-based, rat. The note with it: for effect on survival of H2O2-damaged PC12 cells: 24 h, in words.
Protocol: After 24 hours of incubation in the incubator, the relative proliferation rates of the cells were calculated according to the method under Section 2.1.
A short description of data set [2]: ABTS free radical capture ability. It is filed as biochemical. The note with it: 20 min reaction in the dark. The method, then:
66.2 mg of K2S2O8 was weighed and placed in a 100 mL volumetric flask, pure water was added to the scale line to prepare a 2.45 mmol/L K2S2O8 solution. 192 mg of ABTS was accurately weighed and placed in a 25 mL volumetric flask, and the newly prepared K2S2O8 solution was added for dissolving and constant volume dilution, after standing in the dark for 20 h, the ABTS mother liquor was obtained. Before use, to make the measured value more accurate, the ABTS mother liquor needs to be diluted with a PBS solution of pH7.4 until the absorbance range of the ABTS working solution at 734 nm is 0.70±0.02.
Drug concentration screening: To avoid the complete removal of free radicals by excessive drug concentration and the inability to compare the ability to capture ABTS free radicals, a preliminary screening of drug concentration is required before the formal test. A gradient concentration of compound solution was prepared, and a gradient concentration of Vit C solution was prepared as a positive control. A total of 450 μL of ABTS working solution was accurately absorbed into a 1.5 mL EP tube, and 150 μL of the gradient solution of each group of drugs was added, after 20 min of reaction in the dark, 150 μL of the reaction solution was taken and placed in a 96-well plate, the absorbance was measured by a microplate reader. Three duplicate wells were set for each concentration, and the drug concentration with absorbance between 0.2-0.7 was selected for subsequent determination.
Determination operation: After the drug concentration screening was completed, 7 concentration gradient groups were set within this concentration range. A total of 450 μL of ABTS working solution was accurately absorbed into a 1.5 mL EP tube, and 150 μL of the gradient solution of each group of drugs was added. After 20 min of reaction in the dark, 150 μL of the reaction solution was taken and placed in a 96-well plate, the absorbance was measured by a microplate reader. Three duplicate wells were set for each concentration, the positive control group was a gradient solution of Vit C, and the blank control group was an equal volume of anhydrous ethanol.

Data set [3] has as its system PC12 cells. Briefly: MTT toxicity (safety evaluation) on PC12 nerve cells. Type of data set: cell-based. The settings on record: for cytotoxicity to PC12 cells: 3.75-60 μM, 24 h and 48 h, in words. The method, then:
The toxicity of each drug to PC12 cells was determined by MTT assay. The principle of the MTT colorimetric method: there is succinate dehydrogenase in the mitochondria of living cells, which can make exogenous MTT become blue-purple crystal formazan insoluble in water, this phenomenon cannot be observed in dead cells. The blue-purple crystal formazan can be dissolved by DMSO, and the absorbance value is measured by a microplate reader at a wavelength of 490 nm, which in turn reflects the number of living cells. […] The operation method is as follows:
The cells were resuscitated with DMEM high glucose medium containing 10% fetal bovine serum and cultured in a 5% CO2 cell incubator at 37° C., when the cells grew to the logarithmic growth phase, they were inoculated into a 96-well plate and cultured for 24 hours, each well was added with 100 μL of each compound solution at the corresponding gradient concentration (60, 30, 15, 7.5, 3.75 μM), after incubation in the incubator for 24 h or 48 h, 20 μL of MTT was added to continue incubation for 4 h, the supernatant was discarded and 150 μL of DMSO was added to dissolve the blue-purple crystals, after shaking for 10 min, the cell viability was detected by a microplate reader, and classified according to the cytotoxicity standard. The relevant calculation formula is as follows: […]

Data set [4] can be described thus: Solubility detection of CAK01-CAK07. Type of data set: physicochemical. An excerpt: The chlorinated monocarbonyl curcumin compounds CAK01-CAK07 prepared under the conditions of Example 1 were taken for nuclear magnetic resonance, mass spectrometry, solubility, and melting point detection.
Data set [5] concerns PC12 cells. Nature of the data set: Inhibition of corticosterone (CORT)-induced PC12 cell damage. Type of data set: cell-based, rat. The note with it: 3.75-60 μM drug with 514.6 μM CORT, 24 h, in words.
Data set [6] relates to Nrf2, HO-1, BDNF, and TrkB in the hippocampus. Briefly: Western blot of hippocampal proteins in CUMS depression model mice. It is filed as in vivo. The settings on record: in words.
The subject of data set [7] is CUMS depression model mice. Briefly: Open field test in CUMS depression model mice. It is filed as in vivo, C57BL/6J mice. The settings on record: 10 mg/kg oral once a day, 28 days; model 327.22±161.39 cm. The source says:
(§1) After one week of adaptive feeding, the newly purchased mice were divided into a blank group and CUMS model group. The mice in the blank group were not subjected to behavioral intervention and were fed normally. Mice in the model group were given 1-2 unpredictable behavioral stimuli every day. […] When the same stimulation is continuous, the stimulation method is changed to ensure that the same stimulation is not continuous, and the model construction period is 42 days.

Data set [8] concerns CUMS depression model mice. Nature of the data set: Sucrose preference test in CUMS depression model mice. It is filed as in vivo, C57BL/6J mice. The settings on record: 10 mg/kg oral once a day, 14th day, in words.
Excerpt: as §1

Data set [9] concerns CUMS depression model mice. Briefly: Forced swimming test in CUMS depression model mice. The settings on record: 10 mg/kg oral once a day. Type of data set: in vivo, C57BL/6J mice.
Excerpt: as §1

For the molecule `COc1cc(/C=C2\CN(C(C)C)C/C(=C\c3cc(Cl)c(O)c(OC)c3)C2=O)cc(Cl)c1O` [CAK05, 3,5-bis ((E)-3-chloro-4-hydroxy-5-methoxybenzylidene)-1-isopropylpiperidin-4-one], the “effect on survival of H2O2-damaged PC12 cells” value in the data set with PC12 cells [1] (3.75-60 μM drug) was “failed to show the potential to restore cell viability”. For the same molecule, in data set [2], the “IC50 values of ABTS captured” value is 369.1 µg/mL. Further, the “cytotoxicity to PC12 cells” value in the data set with PC12 cells [3] is given as “a great influence on the activity of PC12 cells”. The “Rank (cytotoxicity standard) 24 h” value in the data set with PC12 cells [3] (PC12, 3.75 μM) is given as 1; in the data set on PC12 cells [3] (PC12, 7.5 μM) it was 2; in the data set on PC12 cells [3] (PC12, 15 μM) it was 2; with PC12 cells [3] (PC12, 30 μM) it was 2; in the data set on PC12 cells [3] (PC12, 60 μM), 3. For the same molecule, the “Relative growth rate (%) 24 h” value in the data set with PC12 cells [3] (PC12, 3.75 μM) amounted to 89.59 ± 2.85%; in the data set on PC12 cells [3] (PC12, 7.5 μM), 68.98±2.27%; in the data set on PC12 cells [3] (PC12, 15 μM), 62.32 ± 3.54%; with PC12 cells [3] (PC12, 30 μM) it was 56.50 ± 1.99%; in the data set with PC12 cells [3] (PC12, 60 μM), 41.84 ± 0.40%. Also, the “Rank (cytotoxicity standard) 48 h” value with PC12 cells [3] (PC12, 3.75 μM) was 2; in the data set on PC12 cells [3] (PC12, 7.5 μM), 2; in the data set on PC12 cells [3] (PC12, 15 μM) it was 3; in the data set with PC12 cells [3] (PC12, 30 μM), 4; in the data set on PC12 cells [3] (PC12, 60 μM), 4. In addition, the “Relative growth rate (%) 48 h” value with PC12 cells [3] (PC12, 3.75 μM) is reported as 61.38±0.91%; in the data set on PC12 cells [3] (PC12, 7.5 μM) it was 51.45 ± 1.44%; in the data set with PC12 cells [3] (PC12, 15 μM), 22.26 ± 1.14%; with PC12 cells [3] (PC12, 30 μM), 15.43 ± 0.32%; in the data set with PC12 cells [3] (PC12, 60 μM), 11.06 ± 0.87%. The molecule further yielded a solubility in data set [4] of 0.14 mg/100 g. The “effect on viability of CORT-damaged PC12 cells” value (from here on “effect on viability”) in the data set on PC12 cells [5] is “did not show the potential to restore cell viability”.
Consider `COc1cc(/C=C2\CN(C)C/C(=C\c3cc(Cl)c(O)c(OC)c3)C2=O)cc(Cl)c1O` [CAK07, 3,5-bis ((E)-3-chloro-4-hydroxy-5-methoxybenzylidene)-1-methylpiperidin-4-one], for which, in the data set with PC12 cells [1] (7.5 μM drug), the “effect on survival of H2O2-damaged PC12 cells” value was “a certain cytoprotective effect”. Further, the “IC50 values of ABTS captured” value in data set [2] is 197.3 µg/mL. In addition, the “cytotoxicity to PC12 cells” value in the data set with PC12 cells [3] is reported as “high”. The “Rank (cytotoxicity standard) 24 h” value was determined as 1 in the data set on PC12 cells [3] (PC12, 3.75 μM); 1 in the data set on PC12 cells [3] (PC12, 7.5 μM); 2 with PC12 cells [3] (PC12, 15 μM); 2 in the data set with PC12 cells [3] (PC12, 30 μM); 3 with PC12 cells [3] (PC12, 60 μM). Also, the “Relative growth rate (%) 24 h” value in the data set with PC12 cells [3] (PC12, 3.75 μM) is given as 99.04 ± 1.89%; with PC12 cells [3] (PC12, 7.5 μM), 76.49 ± 0.75%; with PC12 cells [3] (PC12, 15 μM), 60.78±0.55%; with PC12 cells [3] (PC12, 30 μM) it was 53.24 ± 0.51%; in the data set with PC12 cells [3] (PC12, 60 μM), 49.53 ± 0.31%. Further, the “Rank (cytotoxicity standard) 48 h” value in the data set with PC12 cells [3] (PC12, 3.75 μM) was 1; with PC12 cells [3] (PC12, 7.5 μM), 3; in the data set on PC12 cells [3] (PC12, 15 μM) it was 3; with PC12 cells [3] (PC12, 30 μM), 3; with PC12 cells [3] (PC12, 60 μM), 4. The “Relative growth rate (%) 48 h” value in the data set on PC12 cells [3] (PC12, 3.75 μM) is 82.45 ± 2.34%; in the data set with PC12 cells [3] (PC12, 7.5 μM) it was 46.41±0.69%; in the data set with PC12 cells [3] (PC12, 15 μM), 30.99 ± 0.02%; in the data set on PC12 cells [3] (PC12, 30 μM) it was 30.46 ± 0.54%; with PC12 cells [3] (PC12, 60 μM) it was 24.20 ± 0.74%. For the same molecule, the solubility in data set [4] was determined as 34.77 mg/100 g. For the same molecule, the “effect on viability” value in the data set with PC12 cells [5] was “did not show the potential to restore cell viability”.
As to `CNCCC(Oc1ccc(C(F)(F)F)cc1)c1ccccc1` (stereo not drawn) [Flu, fluoxetine, reference compound], in [6], the “expression of Nrf2, HO-1, BDNF and TrkB” value was “also increased”. The molecule further displayed a cell survival rate in the data set on PC12 cells [1] (7.5 μM drug with 585.8 μM H2O2, 24 h) of 41.92±0.66%. Besides, the “overall activity distance in the open field test” value in [7] worked out at 705.43±159.14 cm. Also, the sucrose preference rate entry in data set [8] was “failed to significantly increase the sucrose preference rate”. In addition, in [9] (14th day, in words), the “forced swimming test, depressive symptoms / immobility time” value is “did not show significant improvement in depressive symptoms”. Besides, the “immobility time in the forced swimming test” value in data set [9] (28 days) was found to be 130.42 ± 59.96 s. In addition, the “effect on viability” value with PC12 cells [5] is “did not show the effect of restoring CORT-damaged cells”.

These data come from patent publication US20250289786A1, “CHLORINATED MONOCARBONYL CURCUMIN COMPOUNDS, PREPARATION METHOD, AND APPLICATION” (Southwest Medical University, priority 2024, published 2025).
